This is an account of results in patent US20050130909A1 (priority 2002, published 2005).

A short description of one series: Rat mass balance study. Type of series: in vivo, Sprague-Dawley rats. Here is the method:
Mass balance studies were conducted to determine the excretion pattern of dalbavancin following a single intravenous (IV) infusion of dalbavancin in male rats.
Water and methanol cage washes were also collected.

A further series has as its system dipeptide (D-Ala-D-Ala). Put plainly: ITC, preliminary experiments. Type of series: binding. To be noted: absence of serum proteins. On the technique in general: In ITC the heat of successive injections is recorded.
Another series relates to Lys-D-Ala-D-Lactate. In words: ITC, preliminary experiments. Type of series: binding. Particulars: absence of serum proteins.
Series [1] deals with N,N′-diacetyl-Lys-D-Ala-D-Ala. In words: ITC of binding to tri-peptide cell-wall analog, with and without HSA. To be noted: control ITC experiments with HSA. Here is the method: Peptide concentrations were determined by weight.
Trans. R. Soc. Lond. Ser. A-Math. Phys. Eng. […] Wiley, (1998) p 103-111; and Cooper, A., Curr. Opin. Chem. Biol. (1999) 3, 557-563.

The next series deals with human α-glycoprotein. Put plainly: Protein binding by ITC. Particulars: protein […]10^−5 M assumed.
The next series deals with human albumin (Homo sapiens, UniProt P02768). In words: Protein binding by isothermal titration microcalorimetry (ITC). Particulars: for Calculated percent Binding to Human albumin: albumin 6×10^−4 M assumed.
A short description of series [2]: ESI-MS analysis of multimers in solution. To be noted: dalbavancin 0.1 mg/ml in 8:2 water:isopropanol; teicoplanin 50 and 100 μg/mL in water.
Experimental: Experiments were performed using an Applied Biosystem API III+ mass spectrometer equipped with a TurboIonSpray source, a Triple Quadrupole analyzer, operating in positive ion mode.
The mass spectra were obtained in electrospray positive mode on a Finnigan LCQ^Deca ion trap instrument previously tuned and calibrated in electrospray mode using Ultramark 1621, caffeine and MRFA (L-metionyl-arginyl-phenilalanyl-arginine).

human albumin, sequence (P02768 25-609): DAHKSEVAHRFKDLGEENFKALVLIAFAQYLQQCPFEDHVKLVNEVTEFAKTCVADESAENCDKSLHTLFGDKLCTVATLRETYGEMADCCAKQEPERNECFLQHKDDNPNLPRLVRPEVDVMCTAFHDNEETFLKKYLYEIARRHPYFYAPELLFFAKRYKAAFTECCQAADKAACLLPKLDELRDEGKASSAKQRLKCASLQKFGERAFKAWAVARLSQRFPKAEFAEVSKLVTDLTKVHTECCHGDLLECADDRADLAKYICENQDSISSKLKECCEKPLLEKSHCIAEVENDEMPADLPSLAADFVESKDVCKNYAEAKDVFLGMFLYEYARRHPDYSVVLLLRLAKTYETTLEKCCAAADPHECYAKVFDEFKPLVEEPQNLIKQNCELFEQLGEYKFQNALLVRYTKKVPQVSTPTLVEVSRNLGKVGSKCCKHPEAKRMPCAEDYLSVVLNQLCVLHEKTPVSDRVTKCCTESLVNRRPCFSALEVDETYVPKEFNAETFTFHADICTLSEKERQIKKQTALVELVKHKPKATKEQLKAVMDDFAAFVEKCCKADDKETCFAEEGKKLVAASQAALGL

In the case of `CN[C@H]1C(=O)N[C@@H]2Cc3ccc(cc3)Oc3cc4cc(c3O[C@@H]3O[C@H](C(=O)O)[C@@H](O)[C@H](O)[C@H]3NC(=O)CCCCCCCCC(C)C)Oc3ccc(cc3Cl)[C@@H](O)[C@@H]3NC(=O)[C@H](NC(=O)[C@@H]4NC(=O)[C@@H](NC2=O)c2cc(cc(O)c2Cl)Oc2cc1ccc2O)c1ccc(O)c(c1)-c1c(O[C@H]2O[C@H](CO)[C@@H](O)[C@H](O)[C@@H]2O)cc(O)cc1[C@@H](C(=O)NCCCN(C)C)NC3=O` [^3H-dalbavancin], in “Rat mass balance study” (70 days post dose, mass balance study), the “Dose remaining in the carcass” value was 4.5 % of the dose. Besides, the “Plasma t1/2” value in “Rat mass balance study” (rats, single IV 20 mg/kg) is listed as “approximately 1 week”.

As to `CN[C@H](CC(C)C)C(=O)N[C@H]1C(=O)N[C@@H](CC(N)=O)C(=O)N[C@H]2C(=O)N[C@H]3C(=O)N[C@H](C(=O)N[C@H](C(=O)O)c4cc(O)cc(O)c4-c4cc3ccc4O)[C@H](O)c3ccc(c(Cl)c3)Oc3cc2cc(c3O[C@@H]2O[C@H](CO)[C@@H](O)[C@H](O)[C@H]2O[C@H]2C[C@](C)(N)[C@H](O)[C@H](C)O2)Oc2ccc(cc2Cl)[C@H]1O` [vancomycin, reference compound], the “Binding to dipeptide (D-Ala-D-Ala)” value with dipeptide (D-Ala-D-Ala) is on record as “no evidence of binding”. Besides, the “Binding to Lys-D-Ala-D-Lactate” value with Lys-D-Ala-D-Lactate is on record as “no evidence of binding”. Moreover, the “Binding to tri-peptide in the presence of HSA (control)” value in series [1] is “comparable to those seen in the absence of HSA”.

As to Teicoplanin [reference compound], the “Calculated percent Binding to Human α-glycoprotein” value with human α-glycoprotein (antibiotic 1 μM) is 9.6%; in the series with human α-glycoprotein (antibiotic 10 μM) it was 9.1%; in the series on human α-glycoprotein (antibiotic 100 μM), 6.0%. Also, the “Calculated percent Binding to Human albumin” value at human albumin (antibiotic 1 μM) is on record as 98.3%; on human albumin (antibiotic 10 μM), 98.3%; on human albumin (antibiotic 100 μM), 98.0%. Besides, the “Binding stoichiometry antibiotic:protein” value at human albumin (binding stoichiometry modeling of ITC data) is reported as 1:1 binding. For the same molecule, the Multimers in solution result in series [2] is reported as “does not show multimeric complexes in solution”.
